From the supplement of paper PMC13380429

Key:
Conditions in all cases: 72 h
[1] = test system: Calu-3; assay: relative viability EC50 (midpoint between 100% and the lowest measured viability); higher = less toxic
[2] = test system: Vero E6; assay: as above
[3] = test system: HepG2; assay: as above
[4] = test system: U2OS; assay: as above
[5] = test system: Caco-2; assay: as above
[6] = test system: Calu-3; assay: drug sensitivity score (DSS) for viability; higher = more toxic; extreme values may be limits of the assay
[7] = test system: Vero E6; assay: as above
[8] = test system: HepG2; assay: as above
[9] = test system: U2OS; assay: as above
[10] = test system: Caco-2; assay: as above
[11] = test system: Calu-3; assay: cell viability relative to DMSO; higher = less toxic
[12] = test system: Vero E6; assay: as above
[13] = test system: HepG2; assay: as above
[14] = test system: U2OS; assay: as above
[15] = test system: Caco-2; assay: as above

Structure (SMILES)	relative viability EC50 [1] [µM]	relative viability EC50 [2] [µM]	relative viability EC50 [3] [µM]	relative viability EC50 [4] [µM]	relative viability EC50 [5] [µM]	drug sensitivity score [6]	drug sensitivity score [7]	drug sensitivity score [8]	drug sensitivity score [9]	drug sensitivity score [10]	cell viability ([11]; 1 nM) [%]	cell viability ([11]; 10 nM) [%]	cell viability ([11]; 100 nM) [%]	cell viability ([11]; 1000 nM) [%]	cell viability ([11]; 10000 nM) [%]	cell viability ([12]; 1 nM) [%]	cell viability ([12]; 10 nM) [%]	cell viability ([12]; 100 nM) [%]	cell viability ([12]; 1000 nM) [%]	cell viability ([12]; 10000 nM) [%]	cell viability ([13]; 1 nM) [%]	cell viability ([13]; 10 nM) [%]	cell viability ([13]; 100 nM) [%]	cell viability ([13]; 1000 nM) [%]	cell viability ([13]; 10000 nM) [%]	cell viability ([14]; 1 nM) [%]	cell viability ([14]; 10 nM) [%]	cell viability ([14]; 100 nM) [%]	cell viability ([14]; 1000 nM) [%]	cell viability ([14]; 10000 nM) [%]	cell viability ([15]; 1 nM) [%]	cell viability ([15]; 10 nM) [%]	cell viability ([15]; 100 nM) [%]	cell viability ([15]; 1000 nM) [%]	cell viability ([15]; 10000 nM) [%]
CCCCCCCCCCC(CO)CCCCCCCC (stereo not given) [2-octyldodecan-1-ol]	> 10	> 10	> 10	> 10	> 10	0	0	0	0	0	98.5	88.2	98.2	100	102	98.4	97.3	97.4	93.5	99.7	96.8	95.8	102	102	98.3	96.6	98	97.3	101	95.9	96.1	103	98.9	93.1	98.2
CC(=O)c1ccc(S(=O)(=O)NC(=O)NC2CCCCC2)cc1 [acetohexamide]	> 10	> 10	> 10	> 10	> 10	0	0	0	0	3.7	91.8	112	90.2	107	104	92.7	98.2	97.1	98.9	110	99.5	103	106	113	106	95.1	98	96.6	96.3	96.9	97.1	85.8	90.7	75.4	83.1
CC1(C)OC(=O)C(OCC2CC2)=C1c1ccc(S(C)(=O)=O)cc1 [firocoxib]	> 10	> 10	> 10	> 10	> 10	0	0	0	0	3.5	95.9	93.2	95.6	110	104	100	101	99.2	96.4	98.2	105	97.7	104	103	101	96.7	107	95.3	97.2	102	98.3	91.8	84.1	83.4	86.5
C[C@]12CC[C@H](O)CC1=CC[C@@H]1[C@@H]2CC[C@]2(C)C(=O)CC[C@@H]12 [PRASTERONE]	> 10	> 10	> 10	> 10	> 10	0	0	0	0	0	94.9	81.2	98.3	96.6	108	99.5	101	98.7	98.7	95.2	104	101	94.2	92.3	92.2	97.4	102	102	97.5	100	96.8	99.4	91.4	100	92.6
N[C@@H](Cc1ccc(O)cc1)C(=O)NCC(=O)NCC(=O)O [IMREG-1]	> 10	> 10	> 10	> 10	> 10	0	0	0.1	0	0	102	99.5	101	98.5	108	90.7	96.8	92.6	97.9	89.8	101	102	92	103	86.8	104	95	97.6	93.5	102	98.2	91.6	103	91.3	97.1
NCC(=O)N[C@@H](CCC(N)=O)C(=O)O [gly-gln]	> 10	> 10	> 10	> 10	> 10	0	0	0	0	0	95.9	91.9	92.7	99.2	109	91.8	101	91.7	94.2	107	86.6	100	91.7	106	104	99.2	95.4	96.7	98.3	97.1	95.5	92.6	92.9	102	97.7
CCC(=O)O[C@]1(C(=O)COC(C)=O)CC[C@H]2[C@@H]3C[C@H](C)C4=CC(=O)C=C[C@]4(C)[C@H]3[C@@H](O)C[C@@]21C [methylprednisolone-aceponate]	> 10	> 10	> 10	> 10	> 10	0	0	0	0	0	101	91.6	91.1	95.1	96.5	88	100	92.6	98.3	104	92.1	101	91.1	101	99.3	101	94.3	98.5	96.9	98.1	89.6	95.1	97.4	96.5	105
